Measurements taken from patent US9051310B2, “Nicotinamide derivative or salt thereof” (FUJIFILM Corporation, priority 2011, dated 2015).

What follows are compounds tested against T1, glutathione S-transferase (GST)-linked full-length human Syk protein (Homo sapiens, UniProt P43405) (assay: Syk enzyme assay). Settings: 0.83 nM Syk, time-resolved fluorescence; read-out: IC50 of Syk-inhibitory activity.
T1 construct: glutathione S-transferase (GST)-linked full-length human Syk protein; purchased Carna Biosciences; host or cells: Baculovirus expression system
Type: biochemical
Method in brief: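 Phosphotyrosine on a biotin-peptide substrate (0.5 μM) was read by time-resolved fluorescence at 615 and 665 nm with Eu-anti-pTyr antibody and APC-streptavidin after 1 h EDTA stop.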

IC50 [µM]	SMILES
< 0.01	CN(C)c1nn(C)c2ccc(Nc3nc(N[C@@H]4CCOC[C@@H]4N)c(F)cc3C(N)=O)cc12 [Example 2-212, 6-(((3R,4R)-3-aminotetrahydro-2H-pyran-4-yl)amino)-2-((3-(dimethylamino)-1-methyl-1H-indazol-5-yl)amino)-5-fluoronicotinamide]
< 0.01	COc1cc(Nc2nc(N[C@H](c3ccc(C(F)(F)F)cc3)[C@H](C)N)c(F)cc2C(N)=O)cc(OC)n1 [Example 2-355, 6-(((1R,2S)-2-amino-1-(4-(trifluoromethyl)phenyl)propyl)amino)-2-((2,6-dimethoxypyridin-4-yl)amino)-5-fluoronicotinamide]
< 0.01	CC(C)C[C@@H](Nc1nc(Nc2cc(F)c3c(c2)c(N(C)C)nn3C)c(C(N)=O)cc1F)[C@H](C)N [Example 2-190, 6-(((2S,3R)-2-amino-5-methylhexan-3-yl)amino)-2-((3-(dimethylamino)-7-fluoro-1-methyl-1H-indazol-5-yl)amino)-5-fluoronicotinamide]
0.01 to 0.05	CC[C@H](N)[C@@H](CC)Nc1nc(Nc2ccc3c(c2)c(N(C)C)nn3C)c(C(N)=O)cc1F [Example 2-92, 6-(((3R,4S)-4-aminohexan-3-yl)amino) 2-((3-(dimethylamino)-1-methyl-1H-indazol-5-yl)amino)-5-fluoronicotinamide]
0.05 to 0.1	C[C@H](N)[C@H](Nc1nc(Nc2cc(N3CCOCC3)ncc2F)c(C(N)=O)cc1F)C1CC1 [Example 2-234, 6-(((1R,2S)-2-amino-1-cyclopropylpropyl)amino)-5-fluoro-2-((5-fluoro-2-morpholinopyridin-4-yl)amino)nicotinamide]
0.01 to 0.05	COc1ccc([C@@H](Nc2nc(Nc3ccc4c(c3)c(N(C)C)nn4C)c(C(N)=O)cc2F)[C@H](C)N)cc1 [Example 2-342, 6-(((1R,2S)-2-amino-1-(4-methoxyphenyl)propyl)amino)-2-((3-(dimethylamino)-1-methyl-1H-indazol-5-yl)amino)-5-fluoronicotinamide]
0.05 to 0.1	COC[C@@H](Nc1nc(Nc2cnc3c(c2)c(OC)nn3C)c(C(N)=O)cc1F)[C@H](C)N [Example 2-256, 6-(((2S,3S)-3-amino-1-methoxybutan-2-yl)amino)-5-fluoro-2-((3-methoxy-1-methyl-1H-pyrazolo[3,4-b]pyridin-5-yl)amino)nicotinamide]
< 0.01	Cc1ccc(Nc2nc(N[C@@H]3CCCC[C@@H]3N)c(F)cc2C(N)=O)cc1 [Example 2-435, 6-(((1R,2S)-2-aminocyclohexyl)amino)-5-fluoro-2-(p-tolylamino)nicotinamide]
< 0.01	CC[C@@H](Nc1nc(Nc2cncc3c2cnn3CC(F)F)c(C(N)=O)cc1F)[C@H](C)N [Example 2-396, 6-(((2S,3R)-2-aminopentan-3-yl)amino)-2-((1-(2,2-difluoroethyl)-1H-pyrazolo[3,4-c]pyridin-4-yl)amino)-5-fluoronicotinamide]
< 0.01	C[C@H](N)[C@H](Nc1nc(Nc2cncc(-n3cc(Cl)cn3)c2)c(C(N)=O)cc1F)C1CC1 [Example 2-520, 6-(((1R,2S)-2-amino-1-cyclopropylpropyl)amino)-2-((5-(4-chloro-1H-pyrazol-1-yl)pyridin-3-yl)amino)-5-fluoronicotinamide]
0.01 to 0.05	CC[C@H](N)[C@@H](C)Nc1nc(Nc2ccc3c(c2)c(NC)nn3C)c(C(N)=O)cc1F [Example 2-499, 6-(((2R,3S)-3-aminopentan-2-yl)amino)-5-fluoro-2-((1-methyl-3-(methylamino)-1H-indazol-5-yl)amino)nicotinamide]
< 0.01	COCCn1ncc2c(Nc3nc(N[C@@H](CN)CC(C)C)c(F)cc3C(N)=O)cccc21 [Example 2-303, (R)-6-((1-amino-4-methylpentan-2-yl)amino)-5-fluoro-2-((1-(2-methoxyethyl)-1H-indazol-4-yl)amino)nicotinamide]
< 0.01	Cc1cnn(-c2cncc(Nc3nc(N[C@H](C4CCC4)[C@H](C)N)c(F)cc3C(N)=O)c2)c1 [Example 2-523, 6-(((1R,2S)-2-amino-1-cyclobutylpropyl)amino)-5-fluoro-2-((5-(4-methyl-1H-pyrazol-1-yl)pyridin-3-yl)amino)nicotinamide]
0.01 to 0.05	COCCNc1nn(CCOC)c2ccc(Nc3nc(N[C@@H]4CCCC[C@@H]4N)c(F)cc3C(N)=O)cc12 [Example 2-535, 6-(((1R,2S)-2-aminocyclohexyl)amino)-5-fluoro-2-((1-(2-methoxyethyl)-3-((2-methoxyethyl)amino)-1H-indazol-5-yl)amino)nicotinamide]
< 0.01	CC[C@@H](Nc1nc(Nc2ccc3c(c2)c(OC(F)F)nn3CCOC)c(C(N)=O)cc1F)[C@H](C)N [Example 2-175, 6-(((2S,3R)-2-aminopentan-3-yl)amino)-2-((3-(difluoromethoxy)-1-(2-methoxyethyl)-1H-indazol-5-yl)amino)-5-fluoronicotinamide]
0.01 to 0.05	CC[C@H](N)[C@@H](C)Nc1nc(Nc2ccc3c(c2)c(OC(F)F)nn3CCOC)c(C(N)=O)cc1F [Example 2-544, 6-(((2R,3S)-3-aminopentan-2-yl)amino)-2-((3-(difluoromethoxy)-1-(2-methoxyethyl)-1H-indazol-5-yl)amino)-5-fluoronicotinamide]

IC50 [µM]	SMILES
< 0.01	COCCn1ncc2c(Nc3nc(N[C@H](C4CC4)[C@H](C)N)c(F)cc3C(N)=O)cncc21 [Example 2-388, 6-(((1R,2S)-2-amino-1-cyclopropylpropyl)amino)-5-fluoro-2-((1-(2-methoxyethyl)-1H-pyrazolo[3,4-c]pyridin-4-yl)amino)nicotinamide]
< 0.01	CCCC[C@@H](Nc1nc(Nc2cccc3c2cnn3CC)c(C(N)=O)cc1F)[C@H](C)N [Example 2-99, 6-(((2S,3R)-2-aminoheptan-3-yl)amino)-2-((1-ethyl-1H-indazol-4-yl)amino)-5-fluoronicotinamide]
0.01 to 0.05	COCCn1ncc2c(Nc3nc(N[C@@H]4CCOC[C@@H]4N)c(F)cc3C(N)=O)cncc21 [Example 2-385, 6-(((3R,4R)-3-aminotetrahydro-2H-pyran-4-yl)amino)-5-fluoro-2-((1-(2-methoxyethyl)-1H-pyrazolo[3,4-c]pyridin-4-yl)amino)nicotinamide]
0.01 to 0.05	CC(C)[C@@H](Nc1nc(Nc2cncc(C3CC3)c2)c(C(N)=O)cc1F)[C@H](C)N [Example 2-111, 6-(((2S,3R)-2-amino-4-methylpentan-3-yl)amino)-2-((5-cyclopropylpyridin-3-yl)amino)-5-fluoronicotinamide]
0.05 to 0.1	CC(C)[C@@H](Nc1nc(Nc2ccc3c(cnn3C)c2)c(C(N)=O)cc1F)[C@H](C)N [Example 2-104, 6-(((2S,3R)-2-amino-4-methylpentan-3-yl)amino)-5-fluoro-2-((1-methyl-1H-indazol-5-yl)amino)nicotinamide]
< 0.01	CCn1ncc2c(Nc3nc(N[C@H](c4ccccc4F)[C@H](C)N)c(F)cc3C(N)=O)cccc21 [Example 2-514, 6-(((1R,2S)-2-amino-1-(2-fluorophenyl)propyl)amino)-2-((1-ethyhl-1H-indazol-4-yl)amino)-5-fluoronicotinamide]
< 0.01	CC(C)C[C@@H](Nc1nc(Nc2cncc3c2cnn3CC(F)F)c(C(N)=O)cc1F)[C@H](C)N [Example 2-400, 6-(((2S,3R)-2-amino-5-methylhexan-3-yl)amino)-2-((1-(2,2-difluoroethyl)-1H-pyrazolo[3,4-c]pyridin-4-yl)amino)-5-fluoronicotinamide]
0.05 to 0.1	Cc1ncc(Nc2nc(N[C@H](C)[C@@H](N)C3CC3)c(F)cc2C(N)=O)cc1-n1nccn1 [Example 2-226, 6-(((1S,2R)-1-amino-1-cyclopropylpropan-2-yl)amino)-5-fluoro-2-((6-methyl-5-(2H-1,2,3-triazol-2-yl)pyridin-3-yl)amino)nicotinamide]
0.01 to 0.05	COc1nn(C)c2ccc(Nc3nc(N[C@H](C(C)C)[C@H](C)N)c(F)cc3C(N)=O)cc12 [Example 2-81, 6-(((2S,3R)-2-amino-4-methylpentan-3-yl)amino)-5-fluoro-2-((3-methoxy-1-methyl-1H-indazol-5-yl)amino)nicotinamide]
< 0.01	COCCN(C)c1nn(C)c2ccc(Nc3nc(N[C@@H]4CCOC[C@@H]4N)c(F)cc3C(N)=O)cc12 [Example 2-457, 6-(((3R,4R)-3-aminotetrahydro-2H-pyran-4-yl)amino)-5-fluoro-2-((3-((2-methoxyethyl)(methyl)amino)-1-methyl-1H-indazol-5-yl)amino)nicotinamide]
< 0.01	CCCC[C@@H](Nc1nc(Nc2cccc3c2cnn3CCOC)c(C(N)=O)cc1F)[C@H](C)N [Example 2-307, 6-(((2S,3R)-2-aminoheptan-3-yl)amino)-5-fluoro-2-((1-(2-methoxyethyl)-1H-indazol-4-yl)amino)nicotinamide]
0.01 to 0.05	COCCn1nc(N(C)C)c2cc(Nc3nc(N[C@@H]4CCCC[C@@H]4N)c(F)cc3C(N)=O)ccc21 [Example 2-500, 6-(((1R,2S)-2-aminocyclohexyl)amino)-2-((3-(dimethylamino)-1-(2-methoxyethyl)-1H-indazol-5-yl)amino)-5-fluoronicotinamide]
< 0.01	Cc1ncc(Nc2nc(N[C@H](c3ccc(F)c(F)c3)[C@H](C)N)c(F)cc2C(N)=O)cc1-n1nccn1 [Example 2-552, 6-(((1R,2S)-2-amino-1-(3,4-difluorophenyl)propyl)amino)-5-fluoro-2-((6-methyl-5-(2H-1,2,3-triazol-2-yl)pyridin-3-yl)amino)nicotinamide]
< 0.01	CC(C)Oc1cccc(Nc2nc(N[C@@H]3CCCC[C@@H]3N)c(F)cc2C(N)=O)c1 [Example 2-446, 6-(((1R,2S)-2-aminocyclohexyl)amino)-5-fluoro-2-((3-isopropoxyphenyl)amino) nicotinamide]
0.01 to 0.05	C[C@H](N)[C@@H](CC1CC1)Nc1nc(Nc2cc(F)c3c(c2)c(N(C)C)nn3C)c(C(N)=O)cc1F [Example 2-191, 6-(((2R,3S)-3-amino-1-cyclopropylbutan-2-yl)amino)-2-((3-(dimethylamino)-7-fluoro-1-methyl-1H-indazol-5-yl)amino)-5-fluoronicotinamide]
